Measured values taken from patent publication US20110054039A1, “USE OF ALKYL SULFATES OR SULFONATES AGAINST PROPIONIBACTERIUM ACNES” (priority 2008, published 2011).
Where two headings read alike, the source gives them in different places. Each block holds one compound with its values, some of them ahead of it.

Experiments:
Format in all cases: cell-based
[1] = tested on: Propionibacterium acnes NCTC 737; experiment: Minimum Inhibitory Concentration (MIC) assay, broth microdilution; conditions: for MIC: P. acnes NCTC 737, Wilkins-Chalgren broth pH 6.0, anaerobic, 37° C., 72 hours
Experimental: (§1) The test micro-organism represented the cutaneous propionibacteria. […] The propionibacteria are clinically significant due to their involvement in acne. This is a very common, complex and multi-factorial skin disease in which P. acnes and other Propionibacterium spp. […] They are also opportunistic pathogens in compromised hosts.
(§2) The propionibacteria were cultured and maintained on Wilkins-Chalgren Anaerobe Medium (agar and broth) at pH 6.0; all cultures were incubated anaerobically at 37° C. for 72 hours.
This is a standard international method for quantitatively assessing the antimicrobial activity of a compound in a liquid medium. […] The culture media were as described above.
The wells were inoculated with a liquid suspension of freshly grown micro-organism and incubated under the conditions described above. After incubation, the microtitre plate was examined visually (with the aid of a light box) for cloudiness in each well, which would indicate microbial growth. The MIC value was recorded as the lowest concentration of test compound required to inhibit microbial growth, ie the lowest concentration for which the liquid in the well remained clear.
The assays included both negative (culture medium with no micro-organisms) and positive (culture medium plus diluting solvent plus micro-organism) controls.
(§3) MIC, MBC and DDA assays, as described above, were carried out using as the test compound sodium n-tetradecyl sulphate (STS, ex Sigma Aldrich, UK), dissolved in distilled water. All the experiments were conducted in triplicate. For the DDA experiments, 200 μg of the test compound was loaded onto each disc.
(§4) The MIC/MBC experiments were conducted in triplicate, with the exception of those for SDS and ADS which were conducted in duplicate. The DDAs were performed either in triplicate, in which case standard deviations are quoted in parentheses, or as a single replicate. For the DDA experiments, 200 μg of the test compound was loaded onto each disc.

[2] = tested on: Propionibacterium acnes NCTC 737; experiment: Minimum Biocidal (Bactericidal) Concentration (MBC) assay; conditions: P. acnes NCTC 737; for MBC: sub-culture on antibiotic-free agar after MIC assay
Experimental: as §1, §2
This assay, normally carried out after an MIC assay, determines the minimum concentration of a compound that is lethal to the micro-organism being tested.
These samples were then individually sub-cultured on antibiotic-free agar medium, under the incubation conditions described above. Following incubation they were examined visually for microbial growth.
as §3, §4

[3] = tested on: Propionibacterium acnes NCTC 737; experiment: Disc Diffusion Assay (DDA); conditions: P. acnes NCTC 737, 200 μg of test compound per disc; for zone of inhibition at 200 µg/disc: Cutibacterium acnes, NCTC737, read-out: DDA (diameter of zone of inhibition)
Experimental: as §1, §2
This is an internationally recognised standard method for qualitatively assessing the antimicrobial activity of a compound.
(§5) A sterile paper disc was impregnated with a sample of the test compound in a suitable solvent and 30 minutes allowed for the solvents to evaporate (where possible). The disc was then placed on an agar plate onto which the test micro-organism had been inoculated. The plate was then incubated under the conditions described above, following which it was examined visually for signs of microbial growth. […] The diameter of this zone of ‘inhibition’ was measured using a ProtoCOL™ automated zone sizer (Synbiosis, Cambridge, UK).
as §3, §4

[4] = tested on: Propionibacterium acnes NCTC 737; experiment: Supplemented Disc Diffusion Assay (agar with salt or lipid); conditions: P. acnes NCTC 737, 200 μg per disc; for zone of inhibition at 200 µg/disc: Cutibacterium acnes, NCTC737, 72 h
Experimental: as §1, §2, §5
Performance under these conditions can provide a more reliable indication of activity on topical application.
as §3, §4

[5] = Cutibacterium acnes, NCTC737, read-out: MIC
[6] = Cutibacterium acnes, NCTC737, read-out: MBC
[7] = agar supplemented with sodium chloride (100 mM), read-out: DDA + salt
[8] = agar supplemented with triolein at 1% v/v, read-out: DDA + lipid
[9] = agar supplemented with sodium chloride (100 mM)
[10] = agar supplemented with triolein at 1% v/v

Compound: CCCCCCCCCCCOS(=O)(=O)[O-].[Na+] [Sodium n-undecyl sulphate, sodium n-undecyl sulphate]
MIC [1, 5]: 31.2 µg/mL
MBC [2, 6]: 62.5 µg/mL
MIC/MBC ratio [2]: 0.5
zone of inhibition at 200 µg/disc [3]: 17.3 mm
zone of inhibition at 200 µg/disc [4, 7]: 19.9 mm
zone of inhibition at 200 µg/disc [4, 8]: 17.7 mm

Compound: CCCCCCCCOS(=O)(=O)[O-].[Na+] [Sodium octyl sulphate, sodium octyl sulphate]
MIC [1, 5]: > 250 µg/mL
MBC [2, 6]: > 250 µg/mL
zone of inhibition at 200 µg/disc [3]: 0 mm
zone of inhibition at 200 µg/disc [4, 7]: 0 mm
zone of inhibition at 200 µg/disc [4, 8]: 0 mm

Compound: CCCCCS(=O)(=O)[O-].[Na+] [Sodium pentane sulphonate, sodium pentane sulphonate]
MIC [1, 5]: > 250 µg/mL
MBC [2, 6]: > 250 µg/mL
zone of inhibition at 200 µg/disc [3]: 0 mm
zone of inhibition at 200 µg/disc [4, 7]: 0 mm
zone of inhibition at 200 µg/disc [4, 8]: 0 mm

Compound: CCCCCCCOS(=O)(=O)[O-].[Na+] [Sodium-n-heptyl sulphate, sodium-n-heptyl sulphate]
MIC [1, 5]: > 250 µg/mL
MBC [2, 6]: > 250 µg/mL
zone of inhibition at 200 µg/disc [3]: 0 mm
zone of inhibition at 200 µg/disc [4, 7]: 0 mm
zone of inhibition at 200 µg/disc [4, 8]: 0 mm

Compound: CCCCCCCCCCCCOS(=O)(=O)O.NC(CO)(CO)CO [Trizma ® dodecyl sulphate, Trizma® (2-amino-2-(hydroxymethyl)-1,3-propanediol, alsoknownas ‘Tris’) dodecyl sulphate]
MIC [1]: 31.25 µg/mL
MIC/MBC ratio [2]: 0.5
MBC [2]: 62.5 µg/mL
DDA (diameter of zone of inhibition) [3]: 0.00 mm
DDA + salt [4, 9]: 0.00 mm
DDA + lipid [4, 10]: 0.00 mm

Compound: triethanolamine lauryl sulphate [Triethanolamine dodecyl sulphate]
MIC [1]: 3.9 µg/mL
MIC/MBC ratio [2]: 0.25
MBC [2]: 15.6 µg/mL
DDA (diameter of zone of inhibition) [3]: 30.19 mm
DDA + salt [4, 9]: 28.33 mm
DDA + lipid [4, 10]: 25.53 mm

The next lines start with results.

MIC [1, 5]: 0.98 µg/mL
Compound: CCCCCCCCCCCCCCOS(=O)(=O)O [Sodium n-tetradecyl sulphate, sodium n-tetradecyl sulphate]
antibacterial activity against P. acnes NCTC 737 (in words) ([1]; summary of MIC, MBC and DDA results): highly active
MBC [2, 6]: 0.98 µg/mL
MIC/MBC ratio [2]: 1
zone of inhibition at 200 µg/disc [3]: 29.9 mm
DDA (diameter of zone of inhibition) ([3]; sulphate): 29.87 mm
zone of inhibition at 200 µg/disc [4, 7]: 31.6 mm
zone of inhibition at 200 µg/disc [4, 8]: 33.7 mm
DDA + salt ([4]; agar supplemented with sodium chloride (100 mM), sulphate): 31.62 mm
DDA + lipid ([4]; agar supplemented with triolein at 1% v/v, sulphate): 33.67 mm

MIC [1, 5]: 1.95 µg/mL
Compound: CCCCCCCCCCCCCCCCCCOS(=O)(=O)[O-].[Na+] [Sodium octadecyl sulphate, sodium octadecyl sulphate]
MBC [2, 6]: 62.5 µg/mL
MIC/MBC ratio [2]: 0.03
zone of inhibition at 200 µg/disc [3]: 9.41 mm
zone of inhibition at 200 µg/disc [4, 7]: 9.3 mm
zone of inhibition at 200 µg/disc [4, 8]: 9.92 mm

MIC [1, 5]: 7.8 µg/mL
Compound: CCCCCCCCCCCCCOS(=O)(=O)[O-].[Na+] [Sodium tridecyl sulphate, sodium tridecyl sulphate]
MBC [2, 6]: 7.8 µg/mL
MIC/MBC ratio [2]: 1
zone of inhibition at 200 µg/disc [3]: 32.2 mm
zone of inhibition at 200 µg/disc [4, 7]: 33.3 mm
zone of inhibition at 200 µg/disc [4, 8]: 31.8 mm
